ChEMBL document CHEMBL5303573, “Mapping human microbiome drug metabolism by gut bacteria and their genes” (Nature, 2019)

What was measured:
Assay type in all cases: ADME
Set-up in all cases: dose 2 uM
Conditions in all cases: 2 µM
[1] = molecular target: T1, Lipolytic enzyme, G-D-S-L family (Bacteroides thetaiotaomicron, UniProt Q8A0C5); assay: (§1) The drug is tested on Bacteroides thetaiotaomicron strain: VPI-5482 for biotransformation. The drug concentrations were measured before and after a 12-h incubation by liquid-chromatography-coupled mass spectrometry (LC–MS)
T1 sequence (Q8A0C5 whole entry): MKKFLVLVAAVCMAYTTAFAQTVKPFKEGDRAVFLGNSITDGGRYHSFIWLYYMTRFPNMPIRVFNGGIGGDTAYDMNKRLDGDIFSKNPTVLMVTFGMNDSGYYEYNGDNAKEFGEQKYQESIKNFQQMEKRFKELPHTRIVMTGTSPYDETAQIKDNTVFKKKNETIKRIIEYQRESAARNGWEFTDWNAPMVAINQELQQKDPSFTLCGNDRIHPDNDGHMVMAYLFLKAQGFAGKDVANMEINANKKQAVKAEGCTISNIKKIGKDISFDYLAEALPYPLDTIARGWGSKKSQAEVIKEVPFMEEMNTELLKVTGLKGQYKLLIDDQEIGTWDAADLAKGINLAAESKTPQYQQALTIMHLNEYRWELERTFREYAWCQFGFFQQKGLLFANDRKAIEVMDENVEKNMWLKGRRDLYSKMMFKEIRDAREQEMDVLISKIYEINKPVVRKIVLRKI

[2] = molecular target: T2, Acetyl esterase (Acetylxylosidase) (Bacteroides thetaiotaomicron, UniProt Q8ABF8); assay: as §1
T2 sequence (Q8ABF8 whole entry): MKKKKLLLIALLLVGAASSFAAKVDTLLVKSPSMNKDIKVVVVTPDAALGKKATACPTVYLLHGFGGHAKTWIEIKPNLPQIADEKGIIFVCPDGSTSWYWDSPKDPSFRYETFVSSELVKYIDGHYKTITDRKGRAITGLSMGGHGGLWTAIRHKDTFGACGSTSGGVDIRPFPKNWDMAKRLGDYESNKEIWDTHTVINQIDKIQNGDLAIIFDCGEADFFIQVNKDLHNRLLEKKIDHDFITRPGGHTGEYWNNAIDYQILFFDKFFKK

Regulatory protein = molecular target: T3, Regulatory protein (Bacteroides thetaiotaomicron, UniProt Q8A576); assay: as §1
T3 sequence (Q8A576 whole entry): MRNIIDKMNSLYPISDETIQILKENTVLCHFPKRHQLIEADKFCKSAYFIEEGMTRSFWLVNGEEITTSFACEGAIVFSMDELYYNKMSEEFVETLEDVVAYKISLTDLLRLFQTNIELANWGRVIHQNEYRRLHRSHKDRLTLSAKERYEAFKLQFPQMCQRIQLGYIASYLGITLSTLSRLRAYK

[3] = molecular target: T4, Pyridine nucleotide-disulfide oxidoreductase (Collinsella aerofaciens, UniProt A4EBM5); assay: (§2) The drug is tested on Collinsella aerofaciens strain: ATCC25986 for biotransformation. The drug concentrations were measured before and after a 12-h incubation by liquid-chromatography-coupled mass spectrometry (LC–MS)
T4 sequence (A4EBM5 whole entry): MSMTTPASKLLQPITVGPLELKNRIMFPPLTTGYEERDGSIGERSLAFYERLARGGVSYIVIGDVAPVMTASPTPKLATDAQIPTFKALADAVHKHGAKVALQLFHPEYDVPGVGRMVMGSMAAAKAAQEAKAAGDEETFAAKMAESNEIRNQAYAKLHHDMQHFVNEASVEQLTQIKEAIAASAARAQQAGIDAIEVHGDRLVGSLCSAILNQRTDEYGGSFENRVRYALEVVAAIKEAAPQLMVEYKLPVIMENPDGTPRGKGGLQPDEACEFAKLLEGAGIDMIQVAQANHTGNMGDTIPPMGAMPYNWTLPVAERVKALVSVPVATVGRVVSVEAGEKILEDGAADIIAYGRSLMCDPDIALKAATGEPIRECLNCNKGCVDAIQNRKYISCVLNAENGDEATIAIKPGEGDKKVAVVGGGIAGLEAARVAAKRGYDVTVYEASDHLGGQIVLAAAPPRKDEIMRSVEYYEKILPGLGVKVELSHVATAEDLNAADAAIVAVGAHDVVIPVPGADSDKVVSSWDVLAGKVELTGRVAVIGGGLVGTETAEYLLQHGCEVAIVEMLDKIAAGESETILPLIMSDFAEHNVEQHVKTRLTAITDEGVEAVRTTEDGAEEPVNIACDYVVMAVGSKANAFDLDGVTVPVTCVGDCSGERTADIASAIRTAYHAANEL

Diguanylate cyclase = molecular target: T5, Diguanylate cyclase (Collinsella aerofaciens, UniProt A4EB91); assay: as §2
T5 sequence (A4EB91 whole entry): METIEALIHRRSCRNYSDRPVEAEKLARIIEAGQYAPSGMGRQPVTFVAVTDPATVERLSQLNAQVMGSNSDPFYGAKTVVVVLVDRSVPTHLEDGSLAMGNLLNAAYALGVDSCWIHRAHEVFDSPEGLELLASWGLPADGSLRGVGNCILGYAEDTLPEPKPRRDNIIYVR

Flavodoxin = molecular target: T6, Flavodoxin (Collinsella aerofaciens, UniProt A4ED08); assay: as §2
T6 sequence (A4ED08 whole entry): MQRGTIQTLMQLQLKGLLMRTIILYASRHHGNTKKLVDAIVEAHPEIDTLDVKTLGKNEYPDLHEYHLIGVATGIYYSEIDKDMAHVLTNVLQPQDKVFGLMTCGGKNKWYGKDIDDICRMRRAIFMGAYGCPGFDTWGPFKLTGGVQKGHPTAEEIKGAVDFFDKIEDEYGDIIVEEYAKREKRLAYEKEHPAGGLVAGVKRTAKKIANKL

GDSL-like protein [4] = molecular target: T7, GDSL-like protein (Collinsella aerofaciens, UniProt A4E7D0); assay: as §2
T7 sequence (A4E7D0 whole entry): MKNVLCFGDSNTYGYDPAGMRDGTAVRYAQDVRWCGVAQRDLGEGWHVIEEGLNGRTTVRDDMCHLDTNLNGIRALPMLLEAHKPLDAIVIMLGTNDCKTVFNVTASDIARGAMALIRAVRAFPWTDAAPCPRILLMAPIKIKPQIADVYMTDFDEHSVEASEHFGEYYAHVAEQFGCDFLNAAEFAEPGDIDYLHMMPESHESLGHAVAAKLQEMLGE

GDSL-like protein [5] = molecular target: T8, GDSL-like protein (Collinsella aerofaciens, UniProt A4E8S4); assay: as §2
T8 sequence (A4E8S4 whole entry): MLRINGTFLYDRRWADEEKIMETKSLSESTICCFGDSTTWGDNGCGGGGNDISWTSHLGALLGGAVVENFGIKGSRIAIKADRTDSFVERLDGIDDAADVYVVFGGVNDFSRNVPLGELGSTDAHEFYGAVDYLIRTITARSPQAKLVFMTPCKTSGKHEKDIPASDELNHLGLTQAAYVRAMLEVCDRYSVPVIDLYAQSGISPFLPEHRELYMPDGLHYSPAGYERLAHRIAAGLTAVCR

Measured: Bacterial Biotransformation

C[C@]12CCC(=O)C=C1[C@@H]1C[C@@H]1[C@H]1[C@@H]3[C@@H]4C[C@@H]4[C@@]4(CCC(=O)O4)[C@@]3(C)CC[C@@H]12 [DROSPIRENONE]
Compound NOT metabolized: [1] | [2] | Regulatory protein | [3] | Diguanylate cyclase | Flavodoxin | GDSL-like protein [4] | GDSL-like protein [5]

N#Cc1ccc2c(c1)N(CCCN1CCC(O)CC1)c1ccccc1S2 [PERICIAZINE]
Compound NOT metabolized: [1] | [2] | Regulatory protein | [3] | Diguanylate cyclase | Flavodoxin | GDSL-like protein [4] | GDSL-like protein [5]
